Here are results for 1 compound from PMC12336824 (The Journal of Biological Chemistry, 2025).

In brackets after ≈: the same amount, converted by molar mass.

The subject of the assay is V. cholerae Δnqr mutant. Description: microbe, parasite or virus in culture. The class given is cell-based.

`CC(C)/N=c1\cc2n(-c3ccc(Cl)cc3)c3ccccc3nc-2cc1Nc1ccc(Cl)cc1` [clofazimine]: the “resistance of the growth to saturating concentrations of inhibitor” value is on record as “about 40%”. The same compound yielded an MIC50 (Vibrio cholerae, 8 h) of 23 ± 6 µM (≈ 10.9 µg/mL).
